Consider ten compounds from patent US11040035B2, “3-oxo-2,6-diphenyl-2,3-dihydropyridazine-4-carboxamides” (BAYER PHARMA AKTIENGESELLSCHAFT, priority 2016, dated 2021).

Series [1] deals with TNFa production by LPS-stimulated human monocytes. The series is described as follows: In vitro assay 4: rescue of TNFa production from human primary monocytes. The format is cell-based. Conditions: one value per donor; for Emax: Homo sapiens, Monocyte, 18 h, human monocytes, 10 ng/mL LPS + 200 μM KA, 18 hours, highest percent TNFa rescue relative to highest rescue with GNF-351, read-out: Individual Donors % rescue TNFa normalised to ref cmpd. Here is the method:
In Vitro Assay 4: Rescue of TNFa Production from Human Primary Monocytes
The ability of the substances to enhance immune cell activity was determined. The substances were tested for their capacity to reverse KA-induced inhibition of TNFa production by LPS-stimulated human monocytes. Human monocytes were purified by negative selection from donor PBMCs using Miltenyi beads and seeded at 2×10^5 cells/well in complete growth medium (RPMI 1640, 10% FCS). Monocytes were incubated with 10 ng/mL LPS (0127:68, #L4516, Sigma) and 200 μM KA (#3375, Sigma) and substances were added at concentrations of 1 μM, 0.3 μM and 0.1 μM and cultured for 18 hours. LPS alone served as the positive control. TNFa production in the supernatant was measured by Meso Scale Discovery immunassay and the ability of the substances to rescue TNFa production was calculated as a percentage of LPS stimulation and KA-induced inhibition and normalized to the donor-specific response with the reference AHR antagonist compound GNF-351 (Smith et al., J Pharmacol Exp Ther, 2011, 338(1):318-27).

Series [2] has as its target T1, AHR (Homo sapiens, UniProt P35869).
T1 sequence (P35869 11-848): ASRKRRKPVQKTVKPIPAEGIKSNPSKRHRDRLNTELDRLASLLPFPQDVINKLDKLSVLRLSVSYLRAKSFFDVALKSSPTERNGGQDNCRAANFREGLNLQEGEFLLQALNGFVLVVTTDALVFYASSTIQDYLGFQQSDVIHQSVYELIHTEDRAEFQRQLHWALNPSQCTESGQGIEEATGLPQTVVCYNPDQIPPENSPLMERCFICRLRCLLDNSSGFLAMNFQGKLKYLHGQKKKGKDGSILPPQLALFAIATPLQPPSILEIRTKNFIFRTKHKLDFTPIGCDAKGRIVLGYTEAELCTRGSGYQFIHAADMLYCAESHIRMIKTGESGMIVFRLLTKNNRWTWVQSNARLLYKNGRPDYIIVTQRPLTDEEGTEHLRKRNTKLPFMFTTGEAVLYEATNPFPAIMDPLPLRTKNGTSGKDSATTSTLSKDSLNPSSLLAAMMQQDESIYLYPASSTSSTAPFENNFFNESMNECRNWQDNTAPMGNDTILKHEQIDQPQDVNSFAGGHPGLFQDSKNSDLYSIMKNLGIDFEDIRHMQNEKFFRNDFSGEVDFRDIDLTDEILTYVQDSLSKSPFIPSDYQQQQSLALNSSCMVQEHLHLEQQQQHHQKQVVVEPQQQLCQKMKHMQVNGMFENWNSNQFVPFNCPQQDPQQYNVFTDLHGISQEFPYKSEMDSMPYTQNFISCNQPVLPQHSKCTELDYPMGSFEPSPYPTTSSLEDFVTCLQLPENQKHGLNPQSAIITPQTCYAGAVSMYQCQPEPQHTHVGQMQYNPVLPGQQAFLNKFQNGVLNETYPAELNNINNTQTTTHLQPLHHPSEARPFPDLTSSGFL
As to the kind of experiment: In vitro assay 2: agonism in human cell line (transactivation assay).

Series [3] concerns AHR-regulated gene CYP1A1. The series is described as follows: In vitro assay 3: AHR-regulated CYP1A1 expression in human cell line (U937, qPCR).
The target in series [4] is T1, AHR. As to the kind of experiment: In vitro assay 1: antagonism in human cell line (transactivation assay, kynurenic acid prestimulated). Conditions: Assay 1: AHR-luc Hum Antagonism IC50 [M], 150 μM kynurenic acid, 20 hours, firefly luciferase.
In another series the test system is CT26 tumor cells. As to the kind of experiment: In vivo assay: efficacy of example compound and PD-1-L1 axis antagonist in CT26 tumor model. Conditions: female Balb/c mice, CT26 s.c.; example 23 30 mg/kg BID p.o.; aPD-L1 (TPP-3911) 10 mg/kg q3d i.p.; treatment from day 5.
For series [5], the target named is T1, AHR. Conditions: 20 h.
Where [6] appears, read: Assay 2: AHR-luc Hum Agonism IC50 [M], no kynurenic acid, 20 hours, firefly luciferase.
[7] abbreviates: Homo sapiens, U-937, 6 h, read-out: Assay 3: Hum CYP1A1 Antagonism IC50 [M], U937 cells, 200 μM KA, 6 hours, qPCR.
[8] abbreviates: read-out: Assay 2: AHR-luc Hum Agonism IC50, no kynurenic acid, 20 hours, firefly luciferase.

Values joined by “and” are separate entries in the source; they are usually repeats but may differ in a detail not shown here. Equal values may be shown once. Read-outs that look alike come from different tables or passages of the source.

From the text for CT26 tumor cells: In Vivo Assay: Efficacy of Compositions Comprising an Example Compound and a PD-1-L1 Axis Antagonist
Animals were ordered from Charles River Sulzfeld, Germany and assigned to the study at the age of 8 weeks. Animal husbandry, feeding and health conditions are according to animal welfare guidelines. CT26 cells (aquired from ATCC) were cultivated with RPMI 1640 with 10% FCS and splitted at least 3 times before inoculation. Female Balb/c mice were inoculated with 500.000 CT26 tumor cells in 50% medium/50% matrigel subcutaneously in the flank. After 4 days the animals were randomized and therapeutic treatment started on day 5.
The anti-PDL1 antibody is a chimera of the variable domain of atezolizumab with murine IgG1 CH1, 2 and 3 domains.
Tumor size was measured using calipers determining length (a) and width (b). Tumor volume was calculated according to:
Significance of monotherapies and combination treatment was calculated versus control group as determined by 2-Way ANOVA analysis.
After 4 days the animals were randomized and therapeutic treatment started on day 5. […] Significance of monotherapies and combination treatment was calculated vs. control group as determined by 2-Way ANOVA analysis.

On to `CC(C)[C@@H](CO)NC(=O)c1cc(-c2ccc(Cl)c(Cl)c2)nn(-c2cccc(F)c2)c1=O` [Example 301, 6-(3,4-Dichlorophenyl)-2-(3-fluorophenyl)-N-[(2S)-1-hydroxy-3-methylbutan-2-yl]-3-oxo-2,3-dihydropyridazine-4-carboxamide], for which the Emax in series [1] was found to be 112%. Further, the values for the IC50 (on AHR [2] (setting [6]); in series [3] (setting [7]); against AHR [4]) were greater than 2e-05 M, 8.1e-08 M and 2.73e-08 M, respectively.

For `Cc1cncc(-c2nc(NCCc3c[nH]c4ccccc34)c3ncn(C(C)C)c3n2)c1` [GNF-351, reference compound], the “Individual Donors Conc of highest rescue” value in series [1] (concentration (of 1, 0.3, 0.1 μM tested) at which highest TNFa rescue was observed) was 0.3 µM and 0.1 µM.

Take `C[C@@H](CO)NC(=O)c1cc(-c2ccc(Cl)cc2)nn(-c2cccc(F)c2)c1=O` [Example 23, 6-(4-Chlorophenyl)-2-(3-fluorophenyl)-N-[(2S)-1-hydroxypropan-2-yl]-3-oxo-2,3-dihydropyridazine-4-carboxamide]: the “T/C, ratio of tumor size under treatment versus tumor size in the control group” value in the series on CT26 tumor cells came out at 0.75. The IC50 against AHR [2] (setting [6]) was greater than 2e-05 M; in series [3] (setting [7]), 7.07e-08 M; at AHR [4], 3.99e-08 M.

On to `CC[C@@H](CO)NC(=O)c1cc(-c2ccc(Cl)c(F)c2)nn(-c2cccc(F)c2)c1=O` [Example 288, 6-(4-Chloro-3-fluorophenyl)-2-(3-fluorophenyl)-N-[(2S)-1-hydroxybutan-2-yl]-3-oxo-2,3-dihydropyridazine-4-carboxamide], for which the Emax in series [1] worked out at 82%. In addition, the IC50 on AHR [2] (setting [6]) was greater than 2e-05 M; in series [3] (setting [7]), 8.05e-08 M; against AHR [4], 3.97e-08 M.

Turning to `Cc1ccc(-c2cc(C(=O)NCC(O)C(F)(F)F)c(=O)n(-c3cc(F)cc(F)c3)n2)cc1` (single isomer, unassigned) [Example 54, 2-(3,5-Difluorophenyl)-6-(4-methylphenyl)-3-oxo-N-(3,3,3-trifluoro-2-hydroxypropyl)-2,3-dihydropyridazine-4-carboxamide], the half-maximal inhibitory concentration (IC50) at AHR [5] was greater than 20 µM; at AHR [4] it was 4.07e-08 M.

Turning to `C[C@@H](CO)NC(=O)c1cc(-c2ccc(Cl)c(Cl)c2)nn(-c2cccc(F)c2)c1=O` [Example 300, 6-(3,4-Dichlorophenyl)-2-(3-fluorophenyl)-N-[(2S)-1-hydroxypropan-2-yl]-3-oxo-2,3-dihydropyridazine-4-carboxamide], the Emax in series [1] is 122%. Also, the IC50 on AHR [2] (setting [6]) is greater than 2e-05 M; in series [3] (setting [7]), 1.07e-07 M; against AHR [4], 1.19e-07 M.

Take `CC(C)(O)C(NC(=O)c1cc(-c2ccc(Cl)cc2)nn(-c2cccc(F)c2)c1=O)C(F)(F)F` (single isomer, unassigned) [Example 279]: the Emax in series [1] worked out at 53%. The concentration for half-maximal inhibition (IC50) at AHR [2] (setting [8]) is greater than 2e-05 M; in series [3] (setting [7]), 2.89e-09 M; against AHR [4], 6.07e-09 M.

In the case of `O=C(NC(CO)C(F)(F)F)c1cc(-c2ccc(Cl)cc2)nn(-c2cccc(F)c2)c1=O` (single isomer, unassigned; (+)) [Example 99, (+)-6-(4-Chlorophenyl)-2-(3-fluorophenyl)-3-oxo-N-(1,1,1-trifluoro-3-hydroxypropan-2-yl)-2,3-dihydropyridazine-4-carboxamide], the Emax in series [1] worked out at 101%. Besides, the IC50 at AHR [2] (setting [8]) is greater than 2e-05 M; in series [3] (setting [7]), 3.77e-09 M; against AHR [4], 1.04e-08 M.

Regarding `O=C(NCC1(O)CCCCC1)c1cc(-c2ccc(Cl)cc2)nn(-c2cccc(F)c2)c1=O` [Example 129, 6-(4-Chlorophenyl)-2-(3-fluorophenyl)-N-[(1-hydroxycyclohexyl)methyl]-3-oxo-2,3-dihydropyridazine-4-carboxamide], the Emax in series [1] was 30%. Moreover, the concentration for half-maximal inhibition (IC50) at AHR [2] (setting [6]) was greater than 2e-05 M; in series [3] (setting [7]) it was 6e-07 M; against AHR [4], 4.52e-07 M.

Regarding `O=C(NC(CO)C1CCOC1)c1cc(-c2ccc(OC(F)(F)F)cc2)nn(-c2cccc(F)c2)c1=O` (single isomer, unassigned) [Example 175, 2-(3-Fluorophenyl)-N-[2-hydroxy-1-(tetrahydrofuran-3-yl)ethyl]-3-oxo-6-[4-(trifluoromethoxy)phenyl]-2,3-dihydropyridazine-4-carboxamide], the 50% inhibitory concentration (IC50) at AHR [2] (setting [6]) is greater than 2e-05 M; in series [3] (read-out: Assay 3: Hum CYP1A1 Antagonism IC50, U937 cells, 200 μM KA, 6 hours, qPCR), 3.76e-08 M; against AHR [4], 2.91e-08 M.
